Experimental data as given in ChEMBL document CHEMBL5230104, “Systemic review on B-RafV600E mutation as potential therapeutic target for the treatment of cancer” (Eur J Med Chem, 2020).
Blank lines part the entries; values can stand above or below the compound they belong to.

Experiments:
[1] = target: T1, Serine/threonine-protein kinase B-raf (Homo sapiens, UniProt P15056); test: Inhibition of wild type B-Raf (unknown origin) incubated for 1 hr by ELISA based luminescence assay
[2] = target: T2, Serine/threonine-protein kinase B-raf (Homo sapiens, UniProt P15056, V600E); test: Inhibition of B-Raf V600E mutant (unknown origin) incubated for 1 hr by ELISA based luminescence assay
Target sequence in this assay (P15056 2-766 V600E limits assumed): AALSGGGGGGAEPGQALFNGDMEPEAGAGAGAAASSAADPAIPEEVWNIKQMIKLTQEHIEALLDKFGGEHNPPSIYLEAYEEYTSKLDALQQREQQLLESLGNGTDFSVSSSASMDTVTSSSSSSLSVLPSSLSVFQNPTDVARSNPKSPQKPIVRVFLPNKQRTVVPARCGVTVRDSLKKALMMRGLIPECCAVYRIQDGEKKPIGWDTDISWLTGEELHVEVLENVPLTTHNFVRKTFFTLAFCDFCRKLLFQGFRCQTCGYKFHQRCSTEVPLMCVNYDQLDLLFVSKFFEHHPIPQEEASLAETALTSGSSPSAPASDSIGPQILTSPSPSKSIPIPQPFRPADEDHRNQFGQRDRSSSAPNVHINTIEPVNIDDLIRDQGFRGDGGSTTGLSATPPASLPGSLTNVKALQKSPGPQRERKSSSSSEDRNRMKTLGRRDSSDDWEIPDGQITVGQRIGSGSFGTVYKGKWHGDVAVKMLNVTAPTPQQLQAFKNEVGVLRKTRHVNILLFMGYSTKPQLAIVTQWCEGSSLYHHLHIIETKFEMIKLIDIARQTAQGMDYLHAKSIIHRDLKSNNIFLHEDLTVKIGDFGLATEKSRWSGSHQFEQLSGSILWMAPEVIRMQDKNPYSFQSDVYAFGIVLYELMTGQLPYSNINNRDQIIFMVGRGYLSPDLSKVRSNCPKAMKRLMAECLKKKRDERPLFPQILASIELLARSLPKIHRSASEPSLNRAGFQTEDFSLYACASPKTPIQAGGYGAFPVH

A549 [3] = test: Antiproliferative activity against human A549 cells assessed as cell growth inhibition; type: functional, cell-based
[4] = target: T2, Serine/threonine-protein kinase B-raf; test: Inhibition of B-Raf V600E mutant (unknown origin)
Target sequence in this assay (P15056 whole entry V600E): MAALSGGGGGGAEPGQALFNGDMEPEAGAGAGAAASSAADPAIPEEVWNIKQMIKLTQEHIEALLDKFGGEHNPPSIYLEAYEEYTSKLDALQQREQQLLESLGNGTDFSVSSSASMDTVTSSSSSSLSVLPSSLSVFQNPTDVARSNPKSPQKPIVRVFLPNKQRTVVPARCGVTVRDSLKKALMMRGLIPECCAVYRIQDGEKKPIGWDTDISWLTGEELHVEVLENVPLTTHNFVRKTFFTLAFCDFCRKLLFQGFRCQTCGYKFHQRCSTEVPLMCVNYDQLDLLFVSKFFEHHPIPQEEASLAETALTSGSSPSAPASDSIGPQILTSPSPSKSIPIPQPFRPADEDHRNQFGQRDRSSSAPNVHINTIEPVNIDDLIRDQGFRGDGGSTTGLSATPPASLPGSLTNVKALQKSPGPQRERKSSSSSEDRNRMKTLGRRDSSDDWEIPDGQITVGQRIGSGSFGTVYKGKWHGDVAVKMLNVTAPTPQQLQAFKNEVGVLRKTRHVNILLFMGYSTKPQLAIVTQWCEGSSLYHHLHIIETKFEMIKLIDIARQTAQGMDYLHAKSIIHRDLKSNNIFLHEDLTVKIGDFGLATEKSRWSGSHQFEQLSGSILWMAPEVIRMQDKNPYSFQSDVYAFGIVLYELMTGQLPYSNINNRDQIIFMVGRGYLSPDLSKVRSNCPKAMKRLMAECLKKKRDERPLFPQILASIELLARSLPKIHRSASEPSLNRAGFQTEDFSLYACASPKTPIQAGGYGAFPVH

A-375 [5] = test: Antiproliferative activity against human A-375 cells incubated for 48 hrs by MTT based colorimetric method; type: functional, cell-based; details: A-375, 48 h
[6] = target: Serine/threonine-protein kinase B-raf (Mus musculus, UniProt P28028); test: Inhibition of full length GST tagged mouse wild type B-Raf preincubated for 1 hr and measured after 25 mins in presence of ATP
Sequence of Serine/threonine-protein kinase B-raf (Mus musculus, UniProt P28028) (P28028 whole entry): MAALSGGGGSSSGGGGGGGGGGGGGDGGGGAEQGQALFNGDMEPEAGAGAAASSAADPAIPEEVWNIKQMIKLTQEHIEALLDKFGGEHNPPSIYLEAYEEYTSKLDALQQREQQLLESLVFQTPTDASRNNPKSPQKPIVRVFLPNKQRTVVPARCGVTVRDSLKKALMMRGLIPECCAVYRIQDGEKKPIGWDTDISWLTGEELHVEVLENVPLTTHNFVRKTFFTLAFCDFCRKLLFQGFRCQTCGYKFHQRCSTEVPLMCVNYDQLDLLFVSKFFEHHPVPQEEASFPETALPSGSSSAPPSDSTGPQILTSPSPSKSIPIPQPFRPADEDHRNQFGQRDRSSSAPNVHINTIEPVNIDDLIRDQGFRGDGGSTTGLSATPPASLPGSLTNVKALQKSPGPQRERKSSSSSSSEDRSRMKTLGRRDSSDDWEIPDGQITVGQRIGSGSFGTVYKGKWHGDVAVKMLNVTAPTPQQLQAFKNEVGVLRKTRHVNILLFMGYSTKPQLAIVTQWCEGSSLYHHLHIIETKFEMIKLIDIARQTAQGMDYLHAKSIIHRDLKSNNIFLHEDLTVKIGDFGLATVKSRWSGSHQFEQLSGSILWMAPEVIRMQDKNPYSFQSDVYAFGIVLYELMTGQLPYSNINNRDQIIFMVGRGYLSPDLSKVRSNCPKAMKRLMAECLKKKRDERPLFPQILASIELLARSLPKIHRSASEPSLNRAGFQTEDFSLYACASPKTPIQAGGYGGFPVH

[7] = Inhibition of full length GST tagged mouse B-Raf V600E mutant preincubated for 1 hr and measured after 25 mins in presence of ATP
WM 266-4 [8] = test: Antiproliferative activity against human WM266-4 cells incubated for 48 hrs by MTT based colorimetric method; type: functional, cell-based; details: WM 266-4, 48 h
A-375 [9] = test: Antiproliferative activity against human A-375 cells; type: functional, cell-based
SK-MEL-5 [10] = test: Anticancer activity against human SK-MEL-5 cells assessed as cell growth proliferation; type: functional, cell-based
UO-31 [11] = test: Anticancer activity against human UO-31 cells assessed as cell growth proliferation; type: functional, cell-based
NCI-H522 = test: Anticancer activity against human NCI-H522 cells assessed as cell growth proliferation; type: functional, cell-based
HOP-92 = test: Anticancer activity against human HOP-92 cells assessed as cell growth proliferation; type: functional, cell-based
HT-29 [12] = test: Anticancer activity against human HT-29 cells assessed as cell growth proliferation; type: functional, cell-based
PC-3 [13] = test: Anticancer activity against human PC-3 cells assessed as cell growth proliferation; type: functional, cell-based
SR = test: Anticancer activity against human SR cells assessed as cell growth proliferation; type: functional, cell-based
SNB-75 = test: Anticancer activity against human SNB-75 cells assessed as cell growth proliferation; type: functional, cell-based
MDA-MB-468 = test: Anticancer activity against human MDA-MB-468 cells assessed as cell growth proliferation; type: functional, cell-based
[14] = tested on: Serine/threonine-protein kinase B-raf (Homo sapiens), P15056 [V600E]; test: Inhibition of B-Raf V600E mutant (unknown origin) at 10 uM relative to control
Sequence of Serine/threonine-protein kinase B-raf (Homo sapiens), P15056 [V600E] (P15056 whole entry V600E): as the sequence (P15056 whole entry V600E) above

OVCAR-3 = test: Anticancer activity against human OVCAR-3 cells assessed as cell growth proliferation; type: functional, cell-based
SW-620 = test: Anticancer activity against human SW620 cells assessed as cell growth proliferation; type: functional, cell-based
A-375 [15] = test: Anticancer activity against human A-375 cells assessed as cell growth proliferation; type: functional, cell-based
[16] = target: T1, Serine/threonine-protein kinase B-raf; test: Inhibition of wild type B-Raf (unknown origin)
SK-OV-3 [17] = test: Antiproliferative activity against human SK-OV-3 cells; type: functional, cell-based
SK-OV-3 [18] = test: Antitumor activity against human SK-OV-3 cells xenografted in mouse model assessed as reduction in tumor growth measured after 40 days relative to control; type: functional; parameters: scale not given: the % may be the effect or the level left; details: time 40 day
A-375 [19] = test: Antiproliferative activity against human A-375 cells incubated for 24 hrs by MTT assay; type: functional, cell-based; details: A-375, 24 h
[20] = Antiproliferative activity against human WM1361 cells incubated for 24 hrs by MTT assay; type: functional, cell-based; details: WM1361, 24 h
SK-MEL-28 [21] = test: Antiproliferative activity against human SK-MEL-28 cells; type: functional, cell-based
[22] = target: T1, Serine/threonine-protein kinase B-raf; test: Inhibition of wild type B-Raf (unknown origin) by hotspot kinase assay
[23] = target: T2, Serine/threonine-protein kinase B-raf; test: Inhibition of B-Raf V600E mutant (unknown origin) by hotspot kinase assay
Target sequence in this assay (P15056 2-766 V600E limits assumed): as the sequence (P15056 2-766 V600E limits assumed) above

K562 = test: Antiproliferative activity against human K562 cells assessed as reduction in cell viability; type: functional, cell-based
PC-3 [24] = test: Antiproliferative activity against human PC-3 cells assessed as reduction in cell viability; type: functional, cell-based
UO-31 [25] = test: Antiproliferative activity against human UO-31 cells assessed as reduction in cell viability; type: functional, cell-based
[26] = target: T2, Serine/threonine-protein kinase B-raf; test: Inhibition of B-Raf V600E mutant (unknown origin) by radiometric protein kinase-reaction biology assay
Target sequence in this assay (P15056 2-766 V600E limits assumed): as above

[27] = target: T1, Serine/threonine-protein kinase B-raf; test: Inhibition of wild type B-Raf (unknown origin) by radiometric protein kinase-reaction biology assay
A-375 [28] = test: Antiproliferative activity against human A-375 cells assessed as reduction in cell viability; type: functional, cell-based
SK-MEL-28 [29] = test: Antiproliferative activity against human SK-MEL-28 cells assessed as reduction in cell viability; type: functional, cell-based
U-251 = test: Antiproliferative activity against human U-251 cells assessed as reduction in cell viability; type: functional, cell-based
HT-29 [30] = test: Antiproliferative activity against human HT-29 cells assessed as reduction in cell viability; type: functional, cell-based
IGROV-1 = test: Antiproliferative activity against human IGROV-1 cells assessed as reduction in cell viability; type: functional, cell-based
SK-MEL-5 [31] = test: Antiproliferative activity against human SK-MEL-5 cells assessed as reduction in cell viability; type: functional, cell-based
NCI-H460 = test: Antiproliferative activity against human NCI-H460 cells assessed as reduction in cell viability; type: functional, cell-based
T47D = test: Antiproliferative activity against human T47D cells assessed as reduction in cell viability; type: functional, cell-based
PC-3 [32] = test: Antiproliferative activity against human PC-3 cells incubated for 48 hrs by MTT assay; type: functional, cell-based; details: PC-3, 48 h
A549 [33] = test: Antiproliferative activity against human A549 cells incubated for 48 hrs by MTT assay; type: functional, cell-based; details: A549, 48 h
A-375 [34] = test: Antiproliferative activity against human A-375 cells incubated for 48 hrs by MTT assay; type: functional, cell-based; details: A-375, 48 h
HT-29 [35] = test: Antiproliferative activity against human HT-29 cells incubated for 48 hrs by MTT assay; type: functional, cell-based; details: HT-29, 48 h
[36] = target: T1, Serine/threonine-protein kinase B-raf; test: Inhibition of human wild type B-Raf (433 to 726 residues) expressed in Escherichia coli BL21 cells by ELISA based assay
[37] = target: T2, Serine/threonine-protein kinase B-raf; test: Inhibition of human B-Raf V600E mutant (433 to 726 residues) expressed in Escherichia coli BL21 cells by ELISA based assay
Target sequence in this assay (P15056 2-766 V600E limits assumed): as above

[38] = Inhibition of full length GST tagged mouse B-Raf V600E mutant incubated for 1 hr
COLO 205 = test: Antiproliferative activity against human COLO 205 cells assessed as inhibition of cell growth incubated for 72 hrs by MTT assay; type: functional, cell-based; details: COLO 205, 72 h
HT-29 [39] = test: Antiproliferative activity against human HT-29 cells assessed as inhibition of cell growth incubated for 72 hrs by MTT assay; type: functional, cell-based; details: HT-29, 72 h
[40] = target: T2, Serine/threonine-protein kinase B-raf; test: Inhibition of B-Raf V600E mutant (unknown origin) by ELISA based assay
Target sequence in this assay (P15056 2-766 V600E limits assumed): as above

A-375 [41] = test: Antiproliferative activity against human A-375 cells assessed as inhibition of cell growth incubated for 72 hrs by MTT assay; type: functional, cell-based; details: A-375, 72 h
[42] = target: T1, Serine/threonine-protein kinase B-raf; test: Inhibition of wild type B-Raf (unknown origin) by ELISA based assay
[43] = Antiproliferative activity against human WM1361 cells measured after 48 hrs by MTT assay; type: functional, cell-based; details: WM1361, 48 h
WM 266-4 [44] = test: Antiproliferative activity against human WM266-4 cells measured after 48 hrs by MTT assay; type: functional, cell-based; details: WM 266-4, 48 h
A-375 [45] = test: Antiproliferative activity against human A-375 cells measured after 48 hrs by MTT assay; type: functional, cell-based; details: A-375, 48 h

T1 sequence (P15056 whole entry): as the sequence (P15056 whole entry V600E) above, with E600V counted along it

Structure (SMILES): Cc1cnc2[nH]cc(C(=O)c3c(F)ccc(N[S+]([O-])C(C)C)c3F)c2c1 (centres undefined)
IC50 [1]: 200 nM
IC50 [2]: 54 nM

Structure (SMILES): Cc1ccc(C2=NN=C(NC(=S)Nc3ccc(Cl)cc3)SC2)cc1
IC50 (A549 [3]): 320 nM
IC50 [4]: 180 nM

Structure (SMILES): COc1ccc(-n2cc(Nc3cccc4[nH]ncc34)cn2)cc1
IC50 (A-375 [5]): 340 nM
IC50 [6]: 770 nM
IC50 [7]: 40 nM
IC50 (WM 266-4 [8]): 380 nM

Structure (SMILES): Cc1nn(-c2ccccc2)c(Cl)c1Nc1ccc(C(F)(F)F)cc1
IC50 (A-375 [9]): 810 nM
IC50 [4]: 66 nM

IC50 (SK-MEL-5 [10]): 510 nM
IC50 (NCI-H522): 270 nM
IC50 (HT-29 [12]): 380 nM
IC50 (PC-3 [13]): 450 nM
IC50 (MDA-MB-468): 270 nM
inhibition [14]: 100%
IC50 (OVCAR-3): 350 nM
IC50 (SW-620): 340 nM
IC50 (A-375 [15]): 820 nM
Structure (SMILES): CCN1CCN(CCC(=O)Nc2cccc(-n3cc(-c4ccncc4)c(-c4ccc(Cl)c(OC)c4)n3)c2)CC1
IC50 (UO-31 [11]): 920 nM
IC50 (HOP-92): 780 nM
IC50 (SR): 430 nM
IC50 (SNB-75): 390 nM

Structure (SMILES): COC[C@@H]1C[C@H]2[C@@H]3CCc4cc(O)ccc4[C@H]3CC[C@]2(C)C1NN (some centres undefined)
IC50 [16]: 4320 nM
IC50 [4]: 41 nM
IC50 (SK-OV-3 [17]): 4230 nM
Activity (SK-OV-3 [18]): 93.61%

Structure (SMILES): Cc1ccc(-n2cc(NC(=O)c3c[nH]c4ccccc34)cn2)cc1
IC50 [6]: 920 nM
IC50 (A-375 [19]): 930 nM
IC50 [20]: 10000 nM
IC50 [7]: 100 nM

Structure (SMILES): COc1cc(-c2nn(-c3ccc(NC(=O)CN4CCOCC4)cc3)cc2-c2ccncc2)ccc1Cl
IC50 (SK-MEL-28 [21]): 2210 nM
IC50 [22]: 536 nM
IC50 (A-375 [9]): 1820 nM
IC50 [23]: 2.98 nM

Structure (SMILES): O=S(=O)(NCCCNc1nccc(-c2c(-c3cccc(F)c3)nc3occn23)n1)c1ccccc1
IC50 (K562): 56300 nM
IC50 (PC-3 [24]): 38900 nM
IC50 (UO-31 [25]): 39800 nM
IC50 [26]: 92 nM
IC50 [27]: 172 nM
IC50 (A-375 [28]): 9810 nM
IC50 (SK-MEL-28 [29]): 11200 nM
IC50 (U-251): 7380 nM
IC50 (HT-29 [30]): 51800 nM
IC50 (IGROV-1): 40200 nM
IC50 (SK-MEL-5 [31]): 28400 nM
IC50 (NCI-H460): 18500 nM
IC50 (T47D): 53600 nM

IC50 (PC-3 [32]): 23400 nM
IC50 (A549 [33]): 12500 nM
IC50 (A-375 [34]): 12200 nM
IC50 (HT-29 [35]): 14700 nM
Structure (SMILES): Cn1ncc2c(Oc3ccc(NC(=O)Nc4ccc(Cl)c(C(F)(F)F)c4)cc3)ncnc21

Structure (SMILES): COC(=O)c1ccccc1-c1ccc(/C=C/[N+](=O)[O-])o1
IC50 [36]: 1380 nM
IC50 [37]: 1960 nM

IC50 [38]: 1300 nM
Structure (SMILES): Cc1ccc(NC(=S)NNC(=O)CNc2nc(-c3ccccc3)c(-c3ccccc3)s2)cc1

Structure (SMILES): CCC[S+]([O-])Nc1ccc(F)c(Cc2c[nH]c3nc(N)n(C)c(=O)c23)c1F (centres undefined)
IC50 (COLO 205): 1640 nM
IC50 (HT-29 [39]): 550 nM
IC50 [40]: 50 nM
IC50 (A-375 [41]): 800 nM
IC50 [42]: 440 nM

IC50 (A-375 [45]): 2040 nM
IC50 [7]: 180 nM
Structure (SMILES): COc1ccc(S(=O)(=O)Nc2cc(-c3ccc(C)cc3)[nH]n2)cc1
IC50 [43]: 10100 nM
IC50 (WM 266-4 [44]): 1580 nM
